Experiments:
PDE IV = PDE IV inhibition (in vitro), cAMP-specific PDE of cytosol of human polymorphonuclear leucocytes; format: biochemical; details: substrate 0.5 μM cAMP, motapizon 1 μM
Experimental: (§1) Phosphodiesterase (PDE) activity is determined with a few modifications (Bauer, A. C.; Schwabe, U., An improved assay of cyclic 3',5'-nucleotide phosphodiesterase with QAE Sephadex A-25. Naunyn-Schmiedeberg's Arch. Pharmacol. 311 193-198 (1980)) after the method described by Thompson et al. (Thompson, W. J.; Appleman, M. M., Assay of cyclic nucleotide phosphodiesterase and resolution of multiple molecular forms of the enzyme. Adv. Cycl. Nucl. Res. 10 69-92 (1979)) The reaction mixture contains 40 mM Tris-HCl (pH 7.4), 5 mM MgCl2, 0.5 μM cAMP or cGMP, [^3 H]cAMP or [^3 H]cGMP (approx. 20,000 cpm/test) and the other components needed to record the individual isoenzymes (see below). The final volume is 200 μl. Test substances are prepared as stock solutions in DMSO. The DMSO concentration in the reaction mixture is the same or less than 1% v/v. The PDE activity is not influenced at this DMSO concentration. […] The radioactivity of the individual fractions is recorded using scintigraphy.
The PDE IV (cAMP-specific) activity is determined after the method described by Schudt et al. (Schudt C.; Winter S.; Forderkurz S.; Hatzelmann A.; Ullrich V., Influence of selective phosphodiesterase inhibitors on human neutrophil functions and levels of cAMP and Ca. Naunyn-Schmiedeberg's Arch. Pharmacol. 344, 682-690 (1991)) describe a method in the cytosol of human polymorpho-nuclear leucocytes. […]

PDE V = target: T1, PDE V (Homo sapiens, UniProt O76074); assay: PDE V inhibition (in vitro), cGMP-specific PDE isolated from human blood platelets; format: biochemical; details: substrate 0.5 μM cGMP
T1 construct: PDE V (cGMP-specific) is isolated from human blood platelets; from tissue; host or cells: human blood platelets
Experimental: as §1, with “concentration. After pre-incubation for 5 minutes at 37° C. the reaction is started by adding the substrate (cAMP or cGMP). The samples are incubated for a further 15 minutes at 37° C. The reaction is stopped by adding 50 μl 0.2N HCl. The samples remain in the ice for a further 10 minutes.” for “concentration.”, “scintigraphy. […]” for “scintigraphy.”

[1] = test system: Histamine precontracted trachea; assay: Influence on the trachea precontracted using histamine; details: Cavia porcellus, guinea pig trachea
Experimental: Guinea pigs are exsanguinated under narcosis. The trachea is then prepared free from adjacent tissue and cut into five equal parts (at least 3 trachea-rings wide). The trachea parts are suspended in a bath filled with a nutrient solution (Krebs-Henseleit). The strength of contraction of the trachea can be measured using force transducers. After suspension, a 15-minute acclimatisation period is allowed. The trachea is then totally relaxed using isoprenaline (1×10^-7 mol/l). The bath vessel is then rinsed. A contraction maximum is triggered using metacholine (10×10^-5 mol/l). The bath vessel is then rinsed again. Histamine ([…]) is then added. The contraction maximum is reached after approx. 10 minutes. The test substance is then added to the bath in increasing concentration and the contraction-triggering effect determined in percent to an untreated control. The mean contraction-triggering concentration is calculated using regression apparatuses. To check the function of the organs, isoprenaline (1×10^-5 mol/l) is then added to the bath to see whether the organs are still able to relax.

[2] = test system: Ovalbumin-induced eosinophilia; assay: Asthmatic late phase reaction: ovalbumin-induced eosinophilia in guinea pigs (BAL); format: in vivo, guinea pig; details: 1 mg/kg i.p., 2 hours before allergen challenge, BAL 24 hours after
Experimental: Male guinea pigs (250-300 g, Pirbright white, Charles River Wiga) are actively sensitised by s.c. injection of ovalbumin (10 μg+100 mg aluminium hydroxide) and boosted 2 weeks later. One week after the boosting (10 μg+100 mg aluminium hydroxide) the animals are exposed of an aerosol of nebulised 0.5 % ovalbumin solution for 20 seconds. 24 hours later, the bronchoalveolar lavage (BAL) is carried out using 2×5 ml sodium chloride solution on animals sacrificed with an overdose of pentobarbital. The lavage liquid is pooled and centrifuged for 10 minutes. The cell pellet is suspended in 1 ml physiological sodium chloride solution and the eosinophils are counted microscopically in a counting chamber using a Becton-Dickinson eosinophil kit. The eosinophils are counted for each guinea pig. The mean value is calculated for each group. The inhibition of the eosinophils for the group treated with substance is obtained using the formula:
(A-C)-(B-C)/(A-C)×100=% inhibition
A=Eosinophils in the untreated control group challenged with ovalbumin
B=Eosinophils in the group treated with the substance and challenged with ovalbumin
C=Eosinophils in the control group not challenged with ovalbumin
The substance was applied 2 hours before allergen challenge p,o, (in 1% methocel) or i.p. (in 0.5% methocel). The control groups receive 1% methocel p.o. or 0.5% methocel i.p. 2 hours before allergen challenge.

IC50 (PDE IV): 100 nM | IC50 (PDE V): 95 nM | IC50 [1]: 700 nM
SMILES: CCCn1c(=O)c2c(C)nc(CC)n2c2nc(OC)ccc21 [embodiment 1, 1-ethyl-8-methoxy-3-methyl-5-propyloimidazo[1,5-a]pyrido[3,2-e]-pyrazinone]
Ovalbumin-induced eosinophilia: % inhibition of eosinophils [2]: 74%

Source: US5723463A, “Pyrido [3,2-E]pyrazinones with anti-asthmatic action and processes for their manufacture” (ASTA Medica Aktiengesellschaft, priority 1995, dated 1998)
